pKi: −log10 of the molar value.
Key:
BbLDH [1] = target: T1, BbLDH (Borreliella burgdorferi, UniProt O51114); assay: Enzyme kinetics of inhibition with varying pyruvate as substrate, 0–100 µM inhibitor; assay type: biochemical; conditions: for type of inhibition for pyruvate substrate (Lineweaver–Burk plots): Fig. S7
T1 construct: we expressed and purified a full-length N-terminal His- and FLAG-tagged BB_0087 recombinant protein (rBB_0087); 10xHis (N); FLAG (N); made in house; host or cells: E. coli Rosetta-gami 2 (DE3)
T1 sequence (O51114 whole entry): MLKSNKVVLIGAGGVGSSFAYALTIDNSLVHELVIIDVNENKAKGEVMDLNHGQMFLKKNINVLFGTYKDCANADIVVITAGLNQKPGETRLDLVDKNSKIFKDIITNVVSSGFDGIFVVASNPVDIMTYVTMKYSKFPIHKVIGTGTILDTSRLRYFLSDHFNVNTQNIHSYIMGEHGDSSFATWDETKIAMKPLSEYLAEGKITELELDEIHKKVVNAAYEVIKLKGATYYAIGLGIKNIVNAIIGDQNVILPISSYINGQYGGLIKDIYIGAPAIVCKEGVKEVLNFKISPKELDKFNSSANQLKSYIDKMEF
Protocol: The inhibitory effect of gossypol and the four lead inhibitors of BbLDH was performed using 0–100 µM of inhibitors or an equal volume of DMSO vehicle in 50 mM Tris-HCl buffer (pH 7.0) containing 100 ng of BbLDH, 0.5 mM NADH, 2.4 mM pyruvate, and 3 mM FBP at 37°C. All experiments were repeated at least twice. The amount of NADH produced or consumed was extrapolated from the NADH standard curve and plotted in GraphPad Prism 10 (GraphPad Software, La Jolla, CA, USA) using Allosteric Sigmoidal mode to obtain the Vmax and Km values. Lineweaver–Burk plots were generated using the mean reciprocal values of substrates and velocities obtained from the inhibition studies.

HeLa cells = assay: Cell viability, crystal violet assay, 72 h; assay type: cell-based, human
Protocol: (§1) Immortalized cervical carcinoma cells (HeLa) and TIGKs were purchased from ATCC. HeLa cells were cultured and maintained in Dulbecco’s Modified Eagle Medium with high glucose and supplemented with 10% FBS and 100 µg/mL of penicillin and streptomycin. TIGK cells were cultured in a serum-free keratinocyte growth medium (KGM; Lifeline Cell Technology, MD) as described previously ([56]). Cells were incubated at 37°C, 5% CO2 incubator.
(§2) To determine the toxicity of LDH inhibitors on eukaryotic cells, HeLa and TIGK cells were seeded onto a 96-well plate at 10^4 cells per well the day before drug treatment. Cell culture media were removed the next day and replaced with culture media containing the specified concentration of DMSO, gossypol, 45923, or 350085. Mock-treated wells were included for cell viability normalization purposes. Cells were incubated with inhibitors for 72 h. To determine the cell viability, the crystal violet assay was used as described ([57]). Briefly, cell culture media were decanted from the 96-well plate and washed once with water. A volume of 50 µL of 0.5% crystal violet staining solution (0.5 g crystal violet powder, 80 mL ddH2O, 20 mL methanol) were incubated for 20 min at room temperature (RT) with gentle shaking. Plates were washed 4–5 times by soaking in ddH2O followed by gentle tapping to remove any remaining liquid. Plates were air-dried at RT. A 200 µL of methanol was added to each well. The resulting plates were incubated for 20 min at RT with gentle shaking followed by optical density measurement at 570 nm (OD570) using a Varioskan LUX multimode microplate reader (Thermo Fisher Scientific). The OD570 of mock cells was set to 100% and the percentage of viable cells treated with inhibitors was determined by comparing the average OD570 values of treated wells to mock wells. The experiment was performed in triplicate wells with two technical replicates and two biological replicates. Two-way analysis of variance was used for statistical analysis with significant values of P < 0.05.

[2] = tested on: telomerase immortalized gingival keratinocytes (TIGKs); assay: Cell viability, crystal violet assay, 72 h; assay type: cell-based, human
Protocol: as §1, §2

BbLDH [3] = target: T1, BbLDH; assay: Small compound library screening (Natural Products Set IV) for inhibition of BbLDH activity; assay type: biochemical; conditions: Extended Data Fig. 7A
Protocol: To identify potential novel LDH inhibitors against BbLDH, the Natural Products Set IV library containing 419 natural compounds selected from the DTP Open Repository collection was obtained from the National Cancer Institute (NCI). All compounds were dissolved in DMSO to a working stock solution of 10 mM. Primary screening was performed using a label-free HTS protocol ([54]) in 384-well plates. Buffer B (20 mM Tris pH 7.4, 0.005% Triton X-100, 0.005% BGG, 2 mM DTT) containing 10 nM BbLDH, 75 µM pyruvate, and 50 µM NADH was dispensed into each well containing pre-dispensed inhibitors to a final concentration of 10 µM in 50 µL working volume per well. Fluorescence was measured using an excitation wavelength of 340 nm and an emission wavelength of 482 nm. Readings were recorded every second over a total duration of 5 min. Gossypol and DMSO were included as positive and negative controls, respectively. Fluorescent signals were plotted over time for each compound and analyzed using linear regression to determine the slope of reduction compared to DMSO and gossypol. Twenty-three compounds with a reduced slope in comparison to DMSO were selected for a second round of screening.
For the secondary screening, a lactate dehydrogenase activity assay kit (Sigma Aldrich) was used to determine the inhibitory effect of selected small compounds on BbLDH activity. Reactions were performed following the manufacturer’s protocol using 10 and 25 µM of small compounds and 10 nM BbLDH per well. Gossypol and DMSO were included as positive and negative controls, respectively. Compounds that reduced the LDH activity of BbLDH compared to DMSO treatment wells were selected for further analysis.

B. burgdorferi = assay: In vitro growth analysis of wild-type B. burgdorferi with inhibitors, Petroff-Hausser counting; assay type: cell-based, Borreliella burgdorferi; conditions: 0–300 µM tested, BSK-II medium, 34°C
Protocol: To measure the growth of the WT B31 A3-68 and 87^mut, 87^mut was first cultivated in the presence of 1 mM IPTG until the stationary phase along with the WT. Cells were harvested via centrifugation and washed with PBS to remove all traces of IPTG. A concentration of 1 × 10^5 cells/mL of WT or 87^mut were inoculated into 10 mL of fresh BSK-II and incubated at 34°C with or without 1 mM IPTG. Bacterial cells were enumerated daily until the cells entered the stationary growth phase (~1 × 10^8 cells/mL) using a Petroff-Hausser counting chamber, as previously described ([100]). At the end of the growth study, cultures were harvested for immunoblot analysis to detect the expression of BbLDH. Growth analyses were repeated in triplicates, and the results were expressed as the means ± standard errors of the means (SEM). To determine the growth inhibition of LDH inhibitors on B. burgdorferi, 10^5 cells/mL of stationary WT cultures were inoculated into a fresh 5 mL BSK-II medium containing the specified concentration of inhibitors. Equal volumes of DMSO were included as negative controls to rule out the inhibitory effect of DMSO on the growth of B. burgdorferi. Cells were maintained at 34°C with a 3.4% CO2 incubator, and cell numbers were enumerated every 2 days until the cells reached the stationary growth phase using the Petroff-Hausser counting chamber.

BB_0087 (BbLDH) = target: T2, BB_0087 (BbLDH) (Borreliella burgdorferi, UniProt O51114); assay: Lactate dehydrogenase activity assay kit, NADH generation from lactate by recombinant BB_0087; assay type: biochemical; conditions: 100 µM gossypol; 50 ng purified recombinant protein
T2 construct: we expressed and purified a full-length N-terminal His- and FLAG-tagged BB_0087 recombinant protein (rBB_0087); 10xHis (N); FLAG (N); made in house; host or cells: E. coli Rosetta-gami 2 (DE3)
T2 sequence (O51114 whole entry): as above
Protocol: To establish the LDH activity of BbLDH, we first used a commercial lactate dehydrogenase activity assay kit (Sigma Aldrich, St. Louis, MO) to measure the ability of BbLDH to reduce NAD to NADH following the manufacturer’s instruction. Commercial LDH inhibitor gossypol (catalog # G8761, Sigma Aldrich) was dissolved in DMSO at a stock concentration of 100 mM. A concentration of 1 µg/µL of recombinant wild-type or H178A BbLDH stocks was diluted 1:20 in the LDH assay buffer to a final working volume of 400 µL per well. A 100 µM of gossypol or DMSO was added to selected wild-type BbLDH wells to determine the inhibitory effect of gossypol on BbLDH activity. Reactions were set up in triplicate wells along with NADH standards. The LDH activity was calculated using the formulation provided by the manufacturer.

BbLDH [4] = target: T1, BbLDH; assay: Enzyme kinetics of inhibition, lactate to pyruvate reaction, NADH read at OD340; assay type: biochemical; conditions: Fig. 1F
Protocol: The enzyme kinetics of BbLDH, with substrates pyruvate or lactate, was monitored by the reduction or oxidation of NADH at OD340 as previously described ([92]) using a Varioskan LUX multimode microplate reader (Thermo Fisher Scientific, Rockford, IL) with minor modifications. Briefly, the conversion of pyruvate to lactate activity was performed at 37°C in 50 mM Tris-HCl buffer pH 7.0 containing 100 ng of BbLDH, 0.5 mM NADH, 2.4 mM pyruvate and with/without 3 mM FBP. The conversion of lactate to pyruvate activity was measured at 37°C in sodium bicarbonate buffer (pH 7.0) containing 100 ng of BbLDH, 1 mM NAD^+, 0–300 mM sodium L-lactate, with/without 3 mM FBP. The kinetic parameters of BbLDH were determined using 0–6.0 mM pyruvate, 0–1.0 mM NADH, 0–2.0 mM NAD^+, 50 mM Tris-HCl buffer, pH 5.0–10.0, or reaction temperature of 25°C, 30°C, and 37°C. All reactions were performed in 96-well plates with a final volume of 200 µL per well.
All experiments were repeated at least twice. The amount of NADH produced or consumed was extrapolated from the NADH standard curve and plotted in GraphPad Prism 10 (GraphPad Software, La Jolla, CA, USA) using Allosteric Sigmoidal mode to obtain the Vmax and Km values. Lineweaver–Burk plots were generated using the mean reciprocal values of substrates and velocities obtained from the inhibition studies.

COc1ccc2c(c1)O[C@H]1c3ccc(O)cc3OC[C@@H]21 (stereo in doubt) [compound 350085, Medicarpin]
pKi (BbLDH [1]): 3.69 | type of inhibition for pyruvate substrate (Lineweaver–Burk plots) (BbLDH [1]): competitive inhibitors | concentration at which growth inhibition of HeLa cells begins (HeLa cells): 5 µM | concentration at which toxicity to TIGKs begins ([2]; crystal violet, non-cancerous cell line): 20 µM | reduction in LDH activity (hit cutoff) (BbLDH [3]): ≥ 75%

CCC(C)(O)C(=O)OC1C(=O)OC2CC3C(C)=CC(O)C(O)C3(C)C3C4(O)OCC23C1C(C)C4O (stereo not drawn) [compound 14975]
pKi (BbLDH [1]): 4.18 | type of inhibition for pyruvate substrate (Lineweaver–Burk plots) (BbLDH [1]): competitive inhibitors

COc1c2occc2cc2ccc(=O)oc12 [compound 45923, Methoxsalen]
type of inhibition for pyruvate substrate (Lineweaver–Burk plots) (BbLDH [1]): competitive inhibitors | pKi (BbLDH [1]; varying pyruvate as substrate, 0.5 mM NADH, 3 mM FBP, pH 7.0, 37°C, Fig. 5, read-out: Ki): 4.27 | concentration at which inhibitory effect on growth was observed (B. burgdorferi): 100 µM | concentration at which growth inhibition of HeLa cells begins (HeLa cells): 10 µM | concentration at which toxicity to TIGKs begins ([2]; human): > 50 µM | reduction in LDH activity (hit cutoff) (BbLDH [3]): ≥ 75%

CCC(C)c1occ2c(O)c(C(=O)O)c(=O)cc-2c1C (stereo not drawn) [compound 114344]
pKi (BbLDH [1]): 3.46 | type of inhibition for pyruvate substrate (Lineweaver–Burk plots) (BbLDH [1]): competitive inhibitors | reduction in LDH activity (hit cutoff) (BbLDH [3]): ≥ 75%

Cc1cc2c(C(C)C)c(O)c(O)c(C=O)c2c(O)c1-c1c(C)cc2c(C(C)C)c(O)c(O)c(C=O)c2c1O [gossypol]
LDH activity of BB_0087 (NADH generated from lactate) upon treatment (BB_0087 (BbLDH)): completely abolished | pKi (BbLDH [4]): 4.89 | pKi (BbLDH [1]): 4.44 | type of inhibition for pyruvate substrate (Lineweaver–Burk plots) (BbLDH [1]): uncompetitive inhibition | concentration at which inhibitory effect on growth was observed (B. burgdorferi): 100 µM

From paper PMC11980376, “Lactate dehydrogenase is the Achilles’ heel of Lyme disease bacterium Borreliella burgdorferi” (mBio, 2025)
